# Data published in PubChem BioAssay AID977628 (Broad Institute, 2014).
# Records with an inconclusive call do not appear.
# Test system: E. coli mixed WT/h24 culture total growth, OD600, 24 h
# Experiment: growth of wild-type and h24-humanized E. coli strains – h24 mutant RFP vs wild-type GFP, cherry-pick, dose response (AID 977628)
row,SMILES,AC50 [µM]
1,CCN(C(=O)COC(=O)CCc1ccccc1)c1ccccc1,> 100
2,CCN(CC)c1nc(Oc2ccc(C(=O)OC)cc2)nc(N2CCOCC2)n1,> 100
3,NS(=O)(=O)c1cc(C(=O)OCC(=O)Nc2ccccc2[N+](=O)[O-])ccc1Cl,> 100
4,COc1ccc(NC(=O)c2cccs2)cc1C(=O)N1CCN(c2ccccc2)CC1,> 100
5,O=C(C[n+]1ccn(-c2ccccc2)c1)c1ccc([N+](=O)[O-])cc1,> 100
6,CN1CCN(CC(=O)c2cc(C(C)(C)C)c(O)c(C(C)(C)C)c2)CC1,> 100
7,COc1ccc(C(=O)C[n+]2ccc3c(c2)nc(-c2cc(OC)c(OC)cc2OC)n3C)cc1,> 100
8,Cc1cccc(C)c1NC(=O)C1(C)CSCC(=O)N1CCOc1ccccc1 (configuration not stated),> 100
9,CCOc1ccc(C(C)=O)cc1CN1C(=O)NC2(CCCCCCC2)C1=O,> 100
10,COCC#Cc1ccc2c(c1)O[C@H](CN(C)C(=O)c1ccccc1)[C@@H](C)CN([C@H](C)CO)S2(=O)=O,> 100
11,COc1cccc(C(=O)c2c[nH]c(C(=O)NCc3cccnc3)c2)c1,> 100
12,COC(=O)c1ccc(OCC(=O)c2ccccc2OC)cc1,> 100
13,CN(C)S(=O)(=O)c1ccc(Cl)c(C(=O)OCC(=O)NC(=O)c2cccn2C)c1,> 100
14,O=C1OC[C@@H]2CCCN2C(=O)[C@@H](CC(=O)N(CCO)Cc2ccccc2)C/C=C\C[C@H]1Cc1ccc(F)cc1,> 100
15,COCc1c(C#N)c(NCCc2ccc(F)cc2)nc(C)c1[N+](=O)[O-],> 100
16,CC(C)Oc1nc(-c2ccccc2Cl)nc2ccccc12,> 100
17,Cc1cccc(C)c1NC(=O)CNC(=O)C(C)N1CCN(c2cccc(Cl)c2)CC1 (configuration not stated),> 100
18,COC(=O)c1cc2c(c3c4cc(F)ccc4n(S(=O)(=O)c4cccc(C)c4)c13)C(=O)N(Cc1ccco1)C2,> 100
19,CC(=O)c1ccc(OCC(=O)Nc2ccc3c(c2)CCC3)cc1,> 100
20,COc1ccccc1-c1noc2ncnc(Nc3ccccc3C)c12,> 100
21,COc1ccc(/C=C/c2nc3ccccc3n2Cc2ccccc2OC)cc1,> 100

row,SMILES,AC50 [µM]
1,O=C(Nc1cccc(S(=O)(=O)c2cccc(NC(=O)C3CC3)c2)c1)C1CC1,46.7
2,COc1cc(CCN(C(=O)c2cc3ccccc3[nH]2)C(c2ccccn2)c2nc3ccccc3[nH]2)cc(OC)c1 (configuration not stated),> 100
3,COc1ccc(-c2csc(NC(=O)c3ccoc3C)n2)cc1,> 100
4,COc1cc2c(cc1OC)CN(CC(=O)Nc1ccccc1SC)CC2,> 100
5,COc1ccc(CC(=O)Oc2ccc(C)cc2C)cc1,> 100
6,c1ccc(Nc2ccc3ccccc3c2)cc1,> 100
7,CN(C)CCNc1ncnc2c1sc1nc(N3CCCC3)c3c(c12)CC(C)(C)OC3,> 100
8,O=S(=O)(Nc1ccccc1N1CCCCC1)c1cccs1,> 100
9,Cc1cc(C)c(OCCN(C)Cc2ccccc2)c(Br)c1,> 100
10,O=C(Nc1ccc(F)c(Cl)c1)C1CC2CCC1C2 (configuration not stated),> 100
11,COc1ccc(CNC(=O)c2nc(S(=O)(=O)Cc3ccccc3)ncc2Cl)cc1,> 100
12,CN1OC[C@@H]2CN(C(=O)c3ccco3)[C@H](c3ccc(-c4ccc(C#N)cc4)cc3)C[C@@H]21,> 100
13,COc1cc2ccccc2cc1C(=O)NCC(c1cccs1)N(C)C (configuration not stated),> 100
14,Fc1ccc(Br)cc1SCCc1ccncc1,> 100
15,CC1CCCC(NC(=O)COC(=O)Cc2c[nH]c3ccccc23)C1C (configuration not stated),> 100
16,COc1cccc(NC(=O)COC(=O)Cc2ccc(Br)cc2)c1,> 100
17,CCCNc1ccc(C(=O)OCC)cc1[N+](=O)[O-],> 100
18,O=C(Cc1ccc(Br)cc1)Nc1cccc(-c2cn3c(n2)SCC3)c1,> 100
19,Cc1ccc(OCCCC(=O)NC(C)c2ccccc2)c(C)c1 (configuration not stated),> 100
20,CCN(CC)CC(=O)Nc1sc2c(c1C(=O)c1ccccc1OC)CCC2,> 100
21,CCC(C(=O)Nc1ccsc1C(=O)OC)c1ccccc1 (configuration not stated),> 100

row,SMILES,AC50 [µM]
1,CC(=O)c1ccc(Sc2ccccc2N)c([N+](=O)[O-])c1,> 100
2,CCN(CC)S(=O)(=O)c1ccc(N2CCCC2)c(NC(=O)c2ccccc2OC)c1,> 100
3,Cn1cc(CN(CCO)Cc2cccs2)c(-c2cccc(Cl)c2)n1,> 100
4,O=C(c1cc(S(=O)(=O)N2CCOCC2)ccc1Cl)N1CCc2ccccc2C1,> 100
5,CC(C)(C)CC(=O)Nc1ccccc1N1CCN(c2ccccc2)CC1,> 100
6,O=C(Nc1nc2ccccc2n1CCN1CCOCC1)c1ccccc1,> 100
7,O=C(CC1SC(=O)N(Cc2ccccc2Cl)C1=O)Nc1nccs1 (configuration not stated),> 100
8,COc1ccc2c(c1)-c1nc(N)sc1CC2,> 100
9,Cc1ccc(NC(=O)c2ccc([N+](=O)[O-])s2)cc1S(=O)(=O)N1CCOCC1,> 100
10,Cc1nn2c(NCc3ccccn3)cc(C(C)C)nc2c1-c1ccccc1,> 100
11,CCOC(=O)c1cc(-c2ccc(OC)cc2)n[nH]1,> 100
12,Cc1ccc(NC(=O)C2CCN(S(=O)(=O)c3ccc4c(c3)NC(=O)CO4)CC2)cc1,> 100
13,Cc1ccnc(NS(=O)(=O)c2ccc(NC(=O)c3ccc4c(c3)OCCO4)cc2)n1,> 100
14,Cc1ccc(NC(=O)c2ccccc2F)c(NC(=O)c2ccccc2F)c1,> 100
15,COc1ccc(C(CC(=O)c2ccc(O)cc2)S(=O)(=O)c2ccc(C)cc2)cc1 (configuration not stated),> 100
16,c1ccc(Cc2nc3ccccc3s2)cc1,> 100
17,COC(=O)c1cc(S(=O)(=O)NCc2ccc3c(c2)OCO3)cn1C,> 100
18,O=C(c1sc2ccccc2c1Cl)N1CCC2(CC1)OCCO2,> 100
19,Cc1ccsc1C(=O)C1CCCN(Cc2cc(F)ccc2-n2cccn2)C1 (configuration not stated),> 100
20,Cc1ccc(S(=O)(=O)N2CCCCC2C(=O)N2CCN(c3ccccc3F)CC2)cc1 (configuration not stated),> 100
21,Cc1cc(C(C)(C)C)oc1C(=O)N(CC(=O)NC1CCCC1)c1c(C)cccc1C,> 100

row,SMILES,AC50 [µM]
1,COc1cccc(OC)c1CNC(=O)CCSCc1ccccc1F,> 100
2,CCOC(=O)c1c(C)[nH]c(C)c1S(=O)(=O)NCCN1CCN(c2ccccc2F)CC1,> 100
3,Cc1ccc(Cc2c(-c3cccc(Br)c3)nc3ccc(C)cn23)cc1,> 100
4,Cc1cccc(SCC(=O)Nc2ccccc2[N+](=O)[O-])c1,> 100
5,O=C(COC(=O)CCC(=O)c1ccc(F)cc1)Nc1cccc(S(=O)(=O)N2CCCC2)c1,> 100
6,COc1ccccc1C1CCN(C(=O)c2cccs2)CC1,> 100
7,O=C(CN1CCCCC1)n1c2ccccc2c2ccccc21,> 100
8,Cc1cccc(N2CCN(Cc3nc(-c4ccc(F)cc4F)oc3C)CC2)n1,> 100
9,O=C(Nc1ccc(Cl)cn1)c1ccc([N+](=O)[O-])o1,> 100
10,CC1CCC2(CC1)SCC(=O)N2c1ccc(F)cc1 (configuration not stated),> 100
11,CN(Cc1nnc(-c2ccc(F)cc2)o1)c1ccccc1,> 100
12,O=C(NCc1ccc2c(c1)OCO2)c1sccc1Br,> 100
13,CC1CCCC(NC(=O)COC(=O)[C@@H]2CC(O)CN2S(=O)(=O)c2ccc3c(c2)OCCO3)C1C (some centres not stated),> 100
14,Cc1cccc(NC(=O)c2c(C)nn(-c3ccccc3)c2Cl)c1,> 100
15,CN(CCOc1ccccc1)S(=O)(=O)c1ccccc1C#N,> 100
16,Cc1ccc(S(=O)(=O)NC(C)C(=O)NCc2ccc(Cl)cc2)cc1 (configuration not stated),> 100
17,COc1ccc(OCCC(=O)OCC(=O)NCCC2=CCCCC2)cc1,> 100
18,Nc1ccccc1Sc1c[nH]c2ccccc12,> 100
19,CCOCCCNC(=O)C(NC(=O)c1ccccc1O)c1ccc(C)cc1 (configuration not stated),> 100
